Experimental data: patent US20100093863A1, “USE OF CITRULLINE FOR PREVENTING AN INCREASE IN PROTEIN CARBONYLATION AND FOR TREATING DISEASES RESULTING THEREFROM” (UNIVERSITE PARIS DESCARTESURE, priority 2007, published 2010)

How the values were obtained:
[1] = tested on: carbonylation of muscle proteins; assay: Carbonylation of muscle proteins (DNPH assay, tibialis anterior) in malnourished-renourished rats; format: in vivo, Sprague-Dawley rats; details: rats aged 19 months, 12 weeks restricted diet, renourished one week with diet enriched with citrulline (5 g/kg/d); FIG. 1 column 4 versus column 3
Description: (§1) Male Sprague-Dawley rats (Charles River Laboratoires, L'Arbresles, France) aged 19 months are placed in individual cages in a thermostatically-controlled atmosphere (23°±1° C.) and subjected to a 12-h light-darkness cycle (darkness from 8 h to 20 h). The manager of the programme is authorized (no. 75.522) by the Ministry of Agriculture and Forestry to carry out this type of experiment. Moreover, the use and the treatment of the laboratory animals comply with legislation (D2001-486) and are in accordance with European legislation (Official Journal of the European Community L358 Dec. 18, 1986).
(§2) The rats are acclimatized for 2 weeks during which spontaneous food consumption is measured. […]
The processes of oxidation of the proteins affecting the structure of the amino acids which comprise them are complex and all give rise to the formation of carbonyl groups. For this reason it was decided to carry out an overall evaluation of the oxidation of the muscle proteins by quantifying the carbonylated derivatives from a sample of 300 mg of tibialis anterior. […] The solubilized proteins are separated into two equal fractions in order to have two cups containing the same quantity of proteins (1-1.5 mg/ml). One of the cups serves as a blank and the other to quantify the carbonyl groups. […]

[2] = tested on: carbonylation of the cerebral proteins; assay: Carbonylation of cerebral proteins (DNPH assay, brain) in elderly rats; format: in vivo, Sprague-Dawley rats
Description: as §1, with “Laboratoires, L′Arbresles,” for “Laboratoires, L'Arbresles,”, “aged 25” for “aged 19”, “(23°±1° C.),” for “(23°±1° C.)”, “a 12-hour” for “a 12-h”
as §2
AANE group (n=4): the animals receive a standard diet rendered isonitrogenous compared with that of the CIT group by the addition of non-essential amino acids (alanine, asparagine, glycine, serine, histidine, and proline in equimolar quantities) for 1 month. […]
The processes of oxidation of the proteins affecting the structure of the amino acids which comprise them are complex and all give rise to the formation of carbonyl groups. For this reason it was decided to carry out an overall evaluation of the oxidation of the muscle proteins by quantifying the carbonylated derivatives from a sample of 1 g of brain. […] One of the cups serves as a blank and the other to quantify the carbonyl groups. […]

## NC(=O)NCCCC(N)C(=O)O (stereo not drawn) [citrulline, 2-amino-5-(carbamoylamino)pentanoic acid]
[1]
  increase in the carbonylation of muscle proteins accompanying malnutrition-renutrition: this phenomenon disappears completely
[2]; brain of rats aged 25 months, enriched standard diet for 1 month (CIT 1 g/kg/d; AANE isonitrogenous), Average ± ASD
  Carbonylated proteins: 164 ± 12 µmol/g
[2]; elderly healthy rats, diet enriched with CIT (1 g/kg/d, 1 month) versus AANE group
  decrease in the carbonylation of the cerebral proteins: ~10%
